{"source": "patent US20160250221A1", "about": "“INHIBITORS OF FAPP2 AND USES THEREOF” (FONDAZIONE TELETHON, priority 2013, published 2016)", "key": {"FAPP2-HIS-SUMO-C-212": {"molecular_target": "T1, FAPP2-HIS-SUMO-C-212 (Homo sapiens, UniProt Q96JA3)", "T1 construct": "the recombinant FAPP2 protein is FAPP2-GLTP-C212 or FAPP2 Full-Length (FL)", "T1 sequence (Q96JA3 310-519 limits assumed)": "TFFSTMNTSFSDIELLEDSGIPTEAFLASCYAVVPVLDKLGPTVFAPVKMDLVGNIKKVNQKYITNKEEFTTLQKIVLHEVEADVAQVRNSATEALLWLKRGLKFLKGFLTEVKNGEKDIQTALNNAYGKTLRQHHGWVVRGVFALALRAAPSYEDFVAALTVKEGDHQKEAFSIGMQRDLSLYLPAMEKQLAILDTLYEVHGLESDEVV", "assay": "FRET GlcCer transfer assay with FAPP2-C212 (384-well)", "assay_type": "biochemical", "settings": "for inhibition of FAPP2 transfer activity: 50 uM compound", "method": "(§1) FAPP2 transfer activity has been evaluated using Fluorescence Resonance Energy Transfer. The FRET assay involves mixing of acceptor vesicles (formed by sonication of 1,2-dioleoyl-sn-glycero-3-phosphocholine (DOPC) suspended in buffer) with donor vesicles containing TopFLUOR-labeled GlcCer (1 mole %) and Di1C18 used as quencher (3 mole %), and recombinant FAPP2 protein (0.5 uM). Recovery of emission intensity at 520 nm (excitation at 485 nm) occurs during FAPP2-mediated transfer of GlcosylCeramide from quenched donor vesicles to unquenched acceptor vesicles. The assay has been performed using FAPP2-GLTP-C212 or FAPP2 Full-Length (FL). In order to conduct the high throughput inhibitor screen, the transfer activity assay was adapted to a microplate format (384 well plate) and read using Synergy Neo HTS Multi-Mode Microplate Reader. First, mixture containing 30 ul of acceptor small unilamellar vesicles, FAPP2 transport protein, and drug in buffer was added to each well in triplicate and read for 1 min to calculate the fluorescence baseline. Then 30 ul donor vesicles were added to each well and read for 15 or 30 mins. Since the increase in fluorescence emission occurs exclusively in presence of FAPP2 transport, the inhibition rate of each compound is evaluated by its ability to decrease the fluorescence emission."}, "HeLa cells": {"tested_on": "HeLa cells", "assay": "GSL synthesis by 3H-sphingosine metabolic labelling", "assay_type": "cell-based"}, "[1]": {"tested_on": "ts045 VSV-G (VSVG) transport", "assay_type": "cell-based", "settings": "dicoumarol 200 μM"}, "[2]": {"tested_on": "3XHA-Gb3S and 3XHA-GM3S distribution", "assay": "Immunofluorescence localization of HA-GM3S and HA-Gb3S", "assay_type": "cell-based", "settings": "BFA 5 μg/ml 30 min", "method": "All immunofluorescence experiments were performed as described previously^1,14. Images are confocal optical slices obtained using an LSM 710 (Zeiss) confocal microscope. Colocalization analysis was performed as described in^14 or by using an object-based colocalization method included in the JACoP v2.0 application for ImageJ^16. In brief, individual mini-stacks in nocodazole-treated cells were considered as objects, whose mass-center position was calculated after segmentation, the perfect coincidence of mass-center positions for two distinct labelling (i.e. Gb3S/TGN46, or GM3S/TGN46) in a single ministack was considered as a positive colocalization event."}, "FAPP2-FL-SUMO": {"molecular_target": "T2, FAPP2-FL-SUMO (Homo sapiens, UniProt Q96JA3)", "T2 construct": "FAPP2-FL-SUMO (recombinant FAPP2 full length protein tagged with small ubiquitin-related modifier); made in house; host or cells: Rosetta cells (E. coli, own knowledge)", "T2 sequence (Q96JA3 1-519)": "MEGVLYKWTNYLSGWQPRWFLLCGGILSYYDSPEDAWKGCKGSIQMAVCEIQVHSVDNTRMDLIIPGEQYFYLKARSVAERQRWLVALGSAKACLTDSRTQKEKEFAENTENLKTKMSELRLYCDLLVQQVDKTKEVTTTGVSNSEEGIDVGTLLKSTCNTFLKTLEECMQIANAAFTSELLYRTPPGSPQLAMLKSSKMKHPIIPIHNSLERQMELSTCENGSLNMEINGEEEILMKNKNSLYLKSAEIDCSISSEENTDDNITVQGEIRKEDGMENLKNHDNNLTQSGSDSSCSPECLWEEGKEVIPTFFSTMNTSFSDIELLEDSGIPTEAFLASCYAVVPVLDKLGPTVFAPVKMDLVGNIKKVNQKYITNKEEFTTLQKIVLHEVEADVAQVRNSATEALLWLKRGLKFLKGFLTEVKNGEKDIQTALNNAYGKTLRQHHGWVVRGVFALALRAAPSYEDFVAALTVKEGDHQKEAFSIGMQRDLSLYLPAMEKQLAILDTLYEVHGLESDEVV", "assay": "FRET-based GlcCer transfer assay, Example 8 (96-well, full-length FAPP2)", "assay_type": "biochemical", "settings": "for competition with the GlcCer transfer activity of FAPP2: final concentration 10 uM", "method": "Specifically, acceptor vesicles (formed by sonication of 1,2-dioleoyl-sn-glycero-3-phosphocholine (DOPC) were suspended in 10 mM NaH2PO4 buffer, pH 7.4, containing 1 mM dithiothreitol and 1 mM EDTA) and were incubated with donor vesicles containing BODIPY-labeled GlcCer (1 or 2 mole %, as indicated) and Di1C18 used as quencher (3 mole %), and recombinant FAPP2 protein (at the indicated concentrations).\nRecovery of emission intensity at 520 nm (excitation at 485 nm) occurred during protein-mediated transfer of GlcCer from quenched donor vesicles to unquenched acceptor vesicles.\nPhlorizin and Dapagliflozin were resuspended in DMSO (100 mM). The assay was conducted at four different concentrations (1 mM, 500 uM, 200 uM, 100 uM). Both FAPP2 WT and FAPP2 W407A were used to highlight possible non-specific effects of the drugs on fluorescence emission. First, mixture that contained FAPP2, acceptor small unilamellar vesicles and drug in buffer were added to 96 well plates, the plate was immediately loaded into the plate reader. Following 2 sec of shaking, the fluorescence emission @520 nm (excitation 485 nm) was measured at 10 sec intervals for 5 mins to calculate the baseline fluorescence. Then, donor vesicles were added to each well and read again for the indicated time. The experiments were repeated at least 3 times and each measurement performed in triplicate.\nTo screen and identify small molecules for drug development for Fabry disease treatment, a miniaturized FRET-based in vitro screening assay was developed to screen for small molecules that can inhibit FAPP2. The miniaturized FRET-based in vitro screening assay tests the ability of FAPP2 to transfer GlcCer from donor to acceptor and identifies small molecules able to inhibit the transfer activity of FAPP2. The flFAPP2 was produced as Sumo-fusion protein and assayed in Rosetta cells."}, "FAPP2-FL-SUMO-HIS": {"molecular_target": "T3, FAPP2-FL-SUMO-HIS (Homo sapiens, UniProt Q96JA3)", "T3 construct": "The assay has been performed using FAPP2-GLTP-C212 or FAPP2 Full-Length (FL); made in house; host or cells: Rosetta cells (E. coli, own knowledge)", "T3 sequence (Q96JA3 1-519)": "T2 sequence (Q96JA3 1-519)", "assay": "FRET GlcCer transfer assay with full-length FAPP2 (Example 9)", "assay_type": "biochemical", "settings": "50 uM compound; FAPP2-FL-SUMO-HIS at 0.5 uM; measured for 15 mins", "method": "as §1"}, "[3]": {"settings": "FAPP2-C212 at 0.5 uM, measured for 30 mins"}}, "note": "“Also recorded” adds a separate entry of the source."}
{"compound": "CCSc1ccc2c(c1)N(CCCN1CCN(C)CC1)c1ccccc1S2", "note": "[Thiethylperazine]", "values": [{"measurement": "inhibition of FAPP2 transfer activity", "setting": "FAPP2-HIS-SUMO-C-212; [3]", "result": 60, "unit": "%"}]}
{"compound": "CCc1oc2ccccc2c1C(=O)c1cc(Br)c(O)c(Br)c1", "note": "[Benzbromarone]", "values": [{"measurement": "ranking as FAPP2 inhibitor in vitro", "setting": "FAPP2-HIS-SUMO-C-212", "result": "one of the most potent FAPP2 inhibitors"}, {"measurement": "inhibition of FAPP2 transfer activity", "setting": "FAPP2-HIS-SUMO-C-212; [3]", "result": 80, "unit": "%"}]}
{"compound": "O=c1oc2ccccc2c(O)c1Cc1c(O)c2ccccc2oc1=O", "note": "[dicoumarol]", "values": [{"measurement": "GM3 synthesis", "setting": "HeLa cells; dicoumarol 200 μM, 3 hours 3H-sphingosine pulse", "result": "strongly inhibited"}, {"measurement": "intra-Golgi progression of VSVG", "setting": "[1]", "result": "suppressed"}]}
{"compound": "COc1cc(C(=O)NS(=O)(=O)c2ccccc2C)ccc1Cc1cn(C)c2ccc(NC(=O)OC3CCCC3)cc12", "note": "[Zafirlukast]", "values": [{"measurement": "inhibition of FAPP2 transfer activity", "setting": "FAPP2-HIS-SUMO-C-212; [3]", "result": 90, "unit": "%"}]}
{"compound": "C[C@H]1CCC/C=C/[C@@H]2C[C@H](O)C[C@H]2[C@H](O)/C=C/C(=O)O1", "note": "[BFA, Brefeldin A]", "values": [{"measurement": "Gb3 synthesis", "setting": "HeLa cells; BFA 5 μg/mL", "result": "decreased"}, {"measurement": "GM3 synthesis", "setting": "HeLa cells; BFA 5 μg/mL, parental cells", "result": "but not that of GM3"}, {"measurement": "GM3 synthesis", "setting": "HeLa cells; HeLa cells overexpressing GM3S (HeLa-GM3S), BFA 5 μg/mL", "result": "became sensitive"}, {"measurement": "redistribution of GM3S to the ER", "setting": "[2]", "result": "redistributed"}]}
{"compound": "CC(C)=CCC/C(C)=C/CC/C(C)=C/Cc1c(O)cc(C)c(C(=O)O)c1O", "note": "[Grifolic Acid]", "values": [{"measurement": "ranking as FAPP2 inhibitor in vitro", "setting": "FAPP2-HIS-SUMO-C-212", "result": "most active FAPP2 inhibitor in vitro"}, {"measurement": "effect on FAPP2-mediated GlcCer transfer", "setting": "FAPP2-HIS-SUMO-C-212; 50 uM, FAPP2-C212 at 0.5 uM, measured for 30 mins", "result": "significantly reduced"}, {"measurement": "effect on FAPP2-mediated GlcCer transfer", "setting": "FAPP2-HIS-SUMO-C-212; 100 uM, FAPP2-C212 at 0.5 uM, measured for 30 mins", "result": "significantly reduced"}]}
{"compound": "CCCCCCCCCCCCC/C=C/[C@@H](O)[C@H](COC1OC(CO)C(O)C(O)C1O)NC(=O)CCCCCCC", "note": "(some centres unmarked) [C8-GlcCer]", "values": [{"measurement": "competition with the GlcCer transfer activity of FAPP2", "setting": "FAPP2-FL-SUMO", "result": "able to inhibit transfer by competition"}, {"measurement": "competition with the GlcCer transfer activity of FAPP2", "setting": "FAPP2-FL-SUMO; listed as C8-G1Cer", "result": "competes"}]}
{"compound": "CCOc1cc(CC(=O)N[C@@H](CC(C)C)c2ccccc2N2CCCCC2)ccc1C(=O)O", "note": "[Repaglinide]", "values": [{"measurement": "inhibition of FAPP2 transfer activity", "setting": "FAPP2-FL-SUMO-HIS", "result": 50, "unit": "%"}]}
{"compound": "O=C(Nc1cccc2c(=O)cc(-c3nn[nH]n3)oc12)c1ccc(OCCCCc2ccccc2)cc1", "note": "[Pranlukast]", "values": [{"measurement": "inhibition of FAPP2 transfer activity", "setting": "FAPP2-HIS-SUMO-C-212; [3]", "result": 90, "unit": "%"}]}
{"compound": "O=C(O)Cn1nnc(-c2cc(N3CCC(Oc4cc(F)ccc4Br)CC3)no2)n1", "note": "[MK-8245]", "values": [{"measurement": "inhibition of FAPP2 transfer activity", "setting": "FAPP2-FL-SUMO-HIS", "result": 40, "unit": "%"}]}
{"compound": "O=C(CCc1ccc(O)cc1)c1c(O)cc(O)cc1O[C@@H]1O[C@H](CO)[C@@H](O)[C@H](O)[C@H]1O", "note": "[Phlorizin]", "values": [{"measurement": "inhibition of GlcCer transfer activity of FAPP2", "setting": "FAPP2-FL-SUMO; four drug concentrations (100 uM, 200 uM, 500 uM, 1 mM)", "result": "can inhibit; also recorded: inhibits the GlcCer transfer"}]}
{"compound": "Cc1cc(OCCCS(C)(=O)=O)cc(C)c1-c1cccc(COc2ccc3c(c2)OCC3CC(=O)O)c1", "note": "(centres unmarked) [TAK-875]", "values": [{"measurement": "effect on FAPP2-mediated GlcCer transfer", "setting": "FAPP2-HIS-SUMO-C-212; 100 uM, FAPP2 at 0.5 uM, measured for 15 mins", "result": "significantly reduced"}]}
